In PubChem BioAssay AID248 (DTP/NCI, 2004):
Toxic doses and inconclusive results are not listed. No stated cut-off is given here; in the data, active means T/C of 150% or more; inactive means T/C below 125%.

Tested on: L1210 leukemia ip in BDF1 mice, survival T/C
Experiment: NCI In Vivo Anticancer Drug Screen. Data for tumor model L1210 Leukemia (intraperitoneal) in B6D2F1 (BDF1) mice
Conditions: endpoint: mean survival time, higher = longer survival
Procedure, shortened: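 In this screen, tumor-bearing mice given compound are compared to those given vehicle, and their survival values are reported as a treated-to-control quotient.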

[1] = dose: 100.0 mg/kg/injection, schedule: Q01DX009 (ip), vehicle: Klucel (hydroxypropylcellulose) (HPC)
[2] = dose: 100.0 mg/kg/injection, schedule: Q04DX003 (ip), vehicle: Klucel (hydroxypropylcellulose) (HPC)
[3] = dose: 200.0 mg/kg/injection, schedule: Q01DX009 (ip), vehicle: Klucel (hydroxypropylcellulose) (HPC)
[4] = dose: 200.0 mg/kg/injection, schedule: Q04DX003 (ip), vehicle: Klucel (hydroxypropylcellulose) (HPC)
[5] = dose: 400.0 mg/kg/injection, schedule: Q04DX003 (ip), vehicle: Klucel (hydroxypropylcellulose) (HPC)
[6] = dose: 100.0 mg/kg/injection, schedule: Q04DX003 (ip), vehicle: saline
[7] = dose: 200.0 mg/kg/injection, schedule: Q04DX003 (ip), vehicle: saline
[8] = dose: 400.0 mg/kg/injection, schedule: Q04DX003 (ip), vehicle: saline
[9] = dose: 100.0 mg/kg/injection, schedule: Q04DX003 (ip), vehicle: saline with Tween-80
[10] = dose: 100.0 mg/kg/injection, schedule: Q01DX001 (ip), vehicle: saline
[11] = dose: 200.0 mg/kg/injection, schedule: Q01DX001 (ip), vehicle: saline
[12] = dose: 400.0 mg/kg/injection, schedule: Q01DX001 (ip), vehicle: saline
[13] = dose: 200.0 mg/kg/injection, schedule: Q04DX003 (ip), vehicle: saline with Tween-80
[14] = dose: 400.0 mg/kg/injection, schedule: Q04DX003 (ip), vehicle: saline with Tween-80
[15] = dose: 100.0 mg/kg/injection, schedule: Q01DX009 (ip), vehicle: saline

Measured: T/C

CCC/C=C/C(C)C
inactive: [1] 105 % of control | [2] 93 % of control | [3] 92 % of control | [4] 97 % of control | dose: 400.0 mg/kg/injection, schedule: Q01DX009 (ip), vehicle: Klucel (hydroxypropylcellulose) (HPC) 95 % of control | [5] 101 % of control

C/C(CCCC(C)(C)C(=O)O)=N/Nc1ccc([N+](=O)[O-])cc1[N+](=O)[O-]
inactive: dose: 75.0 mg/kg/injection, schedule: Q01DX001 (ip), vehicle: other 93 % of control

CN(Cc1ccccc1O)C1CCCCC1
inactive: dose: 75.0 mg/kg/injection, schedule: Q01DX001 (ip), vehicle: saline 95 % of control

COc1cc(OC)cc(C(N)=O)c1
inactive: dose: 50.0 mg/kg/injection, schedule: Q01DX009 (ip), vehicle: Klucel (hydroxypropylcellulose) (HPC) 88 % of control | [1] 97 % of control | [2] 86 % of control | [3] 91 % of control | [5] 86 % of control

COC(=N)c1ccc(O)c(C)c1
inactive: [6] 99 % of control | [7] 94 % of control | [8] 88 % of control

ClC(Cl)(Cl)c1cccc(-c2nc(C(Cl)(Cl)Cl)nc(C(Cl)(Cl)Cl)n2)c1
inactive: dose: 100.0 mg/kg/injection, schedule: Q04DX002 (ip), vehicle: Klucel (hydroxypropylcellulose) (HPC) 106 % of control | dose: 200.0 mg/kg/injection, schedule: Q04DX002 (ip), vehicle: Klucel (hydroxypropylcellulose) (HPC) 90 % of control | dose: 400.0 mg/kg/injection, schedule: Q04DX002 (ip), vehicle: Klucel (hydroxypropylcellulose) (HPC) 100 % of control

CC[CH2][Sn]([Br])([CH2]CC(=O)OC)[CH2]CC(=O)OC
inactive: dose: 100.0 mg/kg/injection, schedule: Q04DX002 (ip), vehicle: saline with Tween-80 93 % of control | dose: 200.0 mg/kg/injection, schedule: Q04DX002 (ip), vehicle: saline with Tween-80 96 % of control

Cc1ccc(N2CCOC2=O)cc1N1CCOC1=O
inactive: dose: 25.0 mg/kg/injection, schedule: Q04DX003 (ip), vehicle: other 97 % of control | dose: 50.0 mg/kg/injection, schedule: Q04DX003 (ip), vehicle: other 104 % of control | dose: 100.0 mg/kg/injection, schedule: Q04DX003 (ip), vehicle: other 103 % of control | [9] 94 % of control

O=c1c(=NNc2ccccc2)c(=O)c2ccccc12
inactive: dose: 50.0 mg/kg/injection, schedule: Q01DX001 (ip), vehicle: saline 94 % of control | [10] 94 % of control | [11] 88 % of control | [12] 102 % of control

O=C(NCc1ccccc1)C(Cc1ccccc1)(Cc1ccccc1)C(=O)NCc1ccccc1
inactive: dose: 100.0 mg/kg/injection, schedule: Q01DX001 (ip), vehicle: carboxymethylcellulose (CMC) 92 % of control | dose: 200.0 mg/kg/injection, schedule: Q01DX001 (ip), vehicle: carboxymethylcellulose (CMC) 90 % of control | dose: 400.0 mg/kg/injection, schedule: Q01DX001 (ip), vehicle: carboxymethylcellulose (CMC) 92 % of control

NC(N)=NC1CCCC1
inactive: [6] 104 % of control

COC(=O)CNC(=O)C1NC(C)(C)SC1(C)C (stereo not given)
inactive: [10] 97 % of control | [11] 101 % of control | [12] 95 % of control

O=C(Nc1ccc(CC2=NCCN2)cc1)c1ccc(C(=O)Nc2ccc(CC3=NCCN3)cc2)cc1
inactive: dose: 0.5 mg/kg/injection, schedule: Q01DX Z (ip), vehicle: saline 102 % of control | dose: 1.0 mg/kg/injection, schedule: Q01DX Z (ip), vehicle: saline 104 % of control | dose: 2.0 mg/kg/injection, schedule: Q01DX Z (ip), vehicle: saline 91 % of control | dose: 4.0 mg/kg/injection, schedule: Q01DX Z (ip), vehicle: saline 104 % of control | dose: 8.0 mg/kg/injection, schedule: Q01DX Z (ip), vehicle: saline 104 % of control

CN(CCC(=O)c1ccccc1)CCC(=O)c1ccccc1
inactive: dose: 100.0 mg/kg/injection, schedule: Q01DX001 (ip), vehicle: saline with Tween-80 93 % of control | dose: 200.0 mg/kg/injection, schedule: Q01DX001 (ip), vehicle: saline with Tween-80 94 % of control

NC(=O)Nc1ccc(C(=O)O)cc1
inactive: dose: 100.0 mg/kg/injection, schedule: Q01DX001 (ip), vehicle: Klucel (hydroxypropylcellulose) (HPC) 95 % of control | [2] 100 % of control | dose: 200.0 mg/kg/injection, schedule: Q01DX001 (ip), vehicle: Klucel (hydroxypropylcellulose) (HPC) 91 % of control | [4] 97 % of control | dose: 400.0 mg/kg/injection, schedule: Q01DX001 (ip), vehicle: Klucel (hydroxypropylcellulose) (HPC) 98 % of control | [5] 98 % of control

Cc1cnc(Br)c(Br)c1
inactive: [9] 102 % of control | [13] 100 % of control | [14] 102 % of control

CCOc1ccc(NC(=S)NC(=O)c2cccc3ccccc23)cc1
inactive: [15] 96 % of control | [6] 92 % of control | dose: 200.0 mg/kg/injection, schedule: Q01DX009 (ip), vehicle: saline 96 % of control | [7] 100 % of control | dose: 400.0 mg/kg/injection, schedule: Q01DX009 (ip), vehicle: saline 95 % of control | [8] 92 % of control

O=S(=O)(C/C=C/COc1ccccc1)c1ccc2ccccc2c1
inactive: dose: 75.0 mg/kg/injection, schedule: Q01DX001 (ip), vehicle: Klucel (hydroxypropylcellulose) (HPC) 104 % of control | dose: 75.0 mg/kg/injection, schedule: Q01DX009 (ip), vehicle: Klucel (hydroxypropylcellulose) (HPC) 102 % of control | dose: 150.0 mg/kg/injection, schedule: Q01DX001 (ip), vehicle: Klucel (hydroxypropylcellulose) (HPC) 94 % of control | dose: 150.0 mg/kg/injection, schedule: Q01DX009 (ip), vehicle: Klucel (hydroxypropylcellulose) (HPC) 96 % of control | dose: 300.0 mg/kg/injection, schedule: Q01DX001 (ip), vehicle: Klucel (hydroxypropylcellulose) (HPC) 113 % of control | dose: 300.0 mg/kg/injection, schedule: Q01DX009 (ip), vehicle: Klucel (hydroxypropylcellulose) (HPC) 98 % of control

Nc1ncnc(N)c1NC(=O)c1ccc(OCCCCOc2ccccc2)c(Cl)c1
inactive: [9] 101 % of control | [13] 102 % of control | [14] 96 % of control

Cc1cccc(C)c1N=C(N)NN
inactive: dose: 25.0 mg/kg/injection, schedule: Q01DX009 (ip), vehicle: saline 100 % of control | dose: 50.0 mg/kg/injection, schedule: Q01DX009 (ip), vehicle: saline 101 % of control | dose: 50.0 mg/kg/injection, schedule: Q04DX003 (ip), vehicle: saline 117 % of control | [10] 96 % of control | [15] 95 % of control | [6] 106 % of control | [11] 98 % of control

Oc1ccccc1N=Cc1ccccc1
inactive: [10] 94 % of control | [11] 100 % of control | [12] 103 % of control

CC(=O)Oc1ccc(C2OC(=O)c3ccccc3N2C(C)=O)cc1 (stereo not given)
inactive: dose: 100.0 mg/kg/injection, schedule: Q01DX009 (ip), vehicle: saline with Tween-80 101 % of control | dose: 200.0 mg/kg/injection, schedule: Q01DX009 (ip), vehicle: saline with Tween-80 101 % of control | dose: 400.0 mg/kg/injection, schedule: Q01DX009 (ip), vehicle: saline with Tween-80 92 % of control
